What was measured:
[1] = tested on: OXGR1 mutants (variant named in the endpoint); test: Calcium mobilization assay, OXGR1 mutants in HEK293; conditions: for Emax: each ligand normalized to WT (100%);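 on all read-outs here: human OXGR1 variants transiently expressed in HEK293 cells, with intracellular calcium read out by Fluo-4 AM fluorescence, measured 24 h after transfection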
Protocol: The full-length human SUCR1 and mutations were fused after the HA signal peptide and Flag tag. The constructs were cloned into pcDNA6.0 vector for HEK293 system.
HEK293 cells were obtained from ATCC (Manassas, VA, USA) and cultured in DMEM supplemented with 10% (v/v) FBS, 100 mg/L penicillin, and 100 mg/L streptomycin in 5% CO2 at 37 °C. For transient transfection, ~2.5 × 10^6 cells were mixed with 2 µg plasmids in 200 µL transfection buffer, and electroporation was carried out with a Scientz-2C electroporation apparatus (Scientz Biotech, Ningbo, China). The experiments were carried out 24 h after transfection. HEK293 cell lines stably expressing Gα16 were constructed by our laboratory.
For OXGR1, plasmids were transfected into HEK293 (other receptors were transfected into HEK293 stably expressing Gα16) and seeded at a density of 4 × 10^4 per well into 96-well culture plates and incubated for 24 h at 37 °C in 5% CO2. The next day, Cells were incubated with 2 μM/L Fluo-4 AM in HBSS supplemented with 5.6 mM/L D-glucose and 250 μM/L sulfinpyrazone at 37 °C for 45 min. […] Three independent measurements were repeated, i.e., three different transfections, with three technical replicates performed for each experiment. EC50 and Emax values for each curve were calculated by Prism 8.0 software (GraphPad Software).

[2] = molecular target: T1, OXGR1 (Homo sapiens, UniProt Q96P68); test: cAMP assay, Gs pathway (OXGR1-Gs-cAMP-Assay); type: cell-based; design: The full-length human OXGR1 and mutations were fused after the HA signal peptide and Flag tag; HA signal peptide (N); Flag (N); expressed in transfected cells; host or cells: HEK293 (pcDNA3.0, transient electroporation); conditions: OXGR1 WT
Protocol: (§1) In brief, cells expressing OXGR1 were seeded in a plate at a density of 1 × 10^6 cells/well and cultured overnight. After 24 h culture, cells were harvested and re-suspended in DMEM containing 500 µM IBMX at a density of 2 × 10^5 cells/mL. Then, cells were plated onto 384-well assay plates at a density of 1000 cells/5 µL/well. Another 5 µL buffer containing compounds at various concentrations was added to the cells, and the incubation lasted for 30 min at 37 °C. Intracellular cAMP level was tested by a LANCE Ultra cAMP kit (PerkinElmer, TRF0264) and EnVision multiplate reader according to the manufacturer’s instructions.

[3] = molecular target: T1, OXGR1; test: cAMP assay, Gi pathway (OXGR1-Gi-cAMP Assay); type: cell-based; design: The full-length human OXGR1 and mutations were fused after the HA signal peptide and Flag tag; HA signal peptide (N); Flag (N); expressed in transfected cells; host or cells: HEK293 (pcDNA3.0, transient electroporation); conditions: OXGR1 WT
Protocol: as §1

[4] = tested on: SUCR1 mutants (variant named in the endpoint); test: Calcium mobilization assay, SUCR1 mutants in HEK293 stably expressing Gα16; type: cell-based, human; conditions: in words

For C=C(CC(=O)O)C(=O)O [ITA, itaconate], the EC50 ([1]; OXGR1 D185A) was > 1000 µM, the Emax ([1]; OXGR1 D185A) was 4.9± 2 WT% and the EC50 ([1]; OXGR1 E97A) was > 1000 µM. The Emax ([1]; OXGR1 E97A) was 47± 3 WT%, the EC50 ([1]; OXGR1 F113A) was > 1000 µM and the Emax ([1]; OXGR1 F113A) was 26± 3 WT%. For the same compound, the EC50 ([1]; OXGR1 F113W) was 21.3 ± 2 µM, the “increase in potency by F113W mutation” value ([1]; OXGR1 F113W versus WT) was ~ 2 fold and the Emax ([1]; OXGR1 F113W) was 86± 2 WT%. For the same compound, the EC50 ([1]; OXGR1 F130D) was > 1000 µM, the Emax ([1]; OXGR1 F130D) was -5.6± 4 WT% and the EC50 ([1]; OXGR1 F130E) was > 1000 µM. The Emax ([1]; OXGR1 F130E) was -5.3± 3 WT%, the EC50 ([1]; OXGR1 F250A) was > 1000 µM and the Emax ([1]; OXGR1 F250A) was 2.2± 3 WT%. The EC50 ([1]; OXGR1 F254A) was > 1000 µM, the Emax ([1]; OXGR1 F254A) was 0.87± 3 WT% and the EC50 ([1]; OXGR1 F257A) was 52 ± 10 µM. It also gave an Emax ([1]; OXGR1 F257A) of 54± 2 WT%, an EC50 ([1]; OXGR1 F257Y) of 130 ± 40 µM and an Emax ([1]; OXGR1 F257Y) of 120± 10 WT%. For the same compound, the EC50 ([1]; OXGR1 H114A) was > 1000 µM, the Emax ([1]; OXGR1 H114A) was -4.6± 2 WT% and the EC50 ([1]; OXGR1 H114L) was > 1000 µM. For the same compound, the Emax ([1]; OXGR1 H114L) was -5.6± 5 WT%, the EC50 ([1]; OXGR1 H258A) was > 1000 µM and the Emax ([1]; OXGR1 H258A) was 3.0± 6 WT%. The EC50 ([1]; OXGR1 H281A) was 670 ± 60 µM, the Emax ([1]; OXGR1 H281A) was 74±3 WT% and the EC50 ([1]; OXGR1 I121A) was > 1000 µM. The Emax ([1]; OXGR1 I121A) was 15± 5 WT%, the EC50 ([1]; OXGR1 I172A) was > 1000 µM and the Emax ([1]; OXGR1 I172A) was -0.93± 2 WT%. The EC50 ([1]; OXGR1 I285A) was > 1000 µM, the Emax ([1]; OXGR1 I285A) was 34±5 WT% and the EC50 ([1]; OXGR1 L36A) was > 1000 µM. The Emax ([1]; OXGR1 L36A) was 6.5± 8 WT%, the EC50 ([1]; OXGR1 L89A) was > 1000 µM and the Emax ([1]; OXGR1 L89A) was -4.5± 2.0 WT%. For the same compound, the EC50 ([1]; OXGR1 L117A) was 500 ± 20 µM, the Emax ([1]; OXGR1 L117A) was 63± 4 WT% and the EC50 ([1]; OXGR1 L124A) was > 1000 µM. The Emax ([1]; OXGR1 L124A) was 36± 3 WT%, the EC50 ([1]; OXGR1 L186A) was > 1000 µM and the Emax ([1]; OXGR1 L186A) was -4.0± 2 WT%. For the same compound, the EC50 ([1]; OXGR1 L186F) was 180 ± 50 µM, the Emax ([1]; OXGR1 L186F) was 80± 9 WT% and the EC50 ([1]; OXGR1 L299P) was > 1000 µM. The “activation of OXGR1 L299P” value ([1]; OXGR1 L299P, in words) was “abolished”, the EC50 ([1]; OXGR1 M168I) was 510 ± 60 µM and the Emax ([1]; OXGR1 M168I) was 100± 8 WT%. The EC50 ([1]; OXGR1 N28A) was 120 ± 30 µM, the Emax ([1]; OXGR1 N28A) was 100± 8 WT% and the EC50 ([1]; OXGR1 R110A) was > 1000 µM. For the same compound, the Emax ([1]; OXGR1 R110A) was 6.5± 2 WT%, the EC50 ([1]; OXGR1 R110E) was > 1000 µM and the Emax ([1]; OXGR1 R110E) was -2.0± 3 WT%. For the same compound, the EC50 ([1]; OXGR1 R110Q) was > 1000 µM, the Emax ([1]; OXGR1 R110Q) was -2.8± 0.7 WT% and the EC50 ([1]; OXGR1 R177A) was 320 ± 90 µM. The Emax ([1]; OXGR1 R177A) was 110± 3 WT%, the EC50 ([1]; OXGR1 R261A) was > 1000 µM and the Emax ([1]; OXGR1 R261A) was 6.7± 2 WT%. For the same compound, the EC50 ([1]; OXGR1 R264A) was > 1000 µM, the Emax ([1]; OXGR1 R264A) was 24± 3 WT% and the EC50 ([1]; OXGR1 R268A) was > 1000 µM. The Emax ([1]; OXGR1 R268A) was -4.3± 4 WT%, the EC50 ([1]; OXGR1 R288A) was > 1000 µM and the Emax ([1]; OXGR1 R288A) was 11±7 WT%. For the same compound, the EC50 ([1]; OXGR1 R288E) was > 1000 µM, the EC50 ([1]; OXGR1 R288Q) was > 1000 µM and the Emax ([1]; OXGR1 R288Q) was 14±1 WT%. The EC50 ([1]; OXGR1 Y40A) was > 1000 µM, the Emax ([1]; OXGR1 Y40A) was 6.9± 9 WT% and the EC50 ([1]; OXGR1 Y82A) was > 1000 µM. The Emax ([1]; OXGR1 Y82A) was 56± 7 WT%, the EC50 ([1]; OXGR1 Y93A) was > 1000 µM and the Emax ([1]; OXGR1 Y93A) was 3.3± 2 WT%. The EC50 ([1]; OXGR1 Y284A) was > 1000 µM, the Emax ([1]; OXGR1 Y284A) was -9±2 WT% and the “activation of Gs signaling” value [2] was “no detectable activation”. For the same compound, the “activation of Gi signaling” value [3] was “no detectable activation” and the “ITA activation of SUCR1-L102F, SUCR1-L102F-F285A, SUCR1-L102F-F175L” value [4] was “further enhanced ITA activation in both potency and efficiency”.
